Test results published in US9914736B2, “TrKA kinase inhibitors, compositions and methods thereof” (Merck Sharp & Dohme Corp., priority 2014, dated 2018).

Target: human TrkA receptor (Homo sapiens (Human), UniProt P04629)
Assay: DiscoverX PathHunter TrkA functional assay
Assay type: cell-based
Conditions: U2OS cells expressing human TrkA-ProLink, Shc1-EA and p75NTR; compound 1 h, then NGF at ~80% of maximal response for 3 h; luminescence
Procedure: TrkA functional activity was measured using a DiscoverX PathHunter assay. In this assay, U2OS cells express the human TrkA receptor as a fusion with the weakly complementing fragment of B-galactosidase, which DiscoverX calls “Prolink (PK)”; additionally, Shc1 is fused with a larger fragment, which is called “Enzyme Acceptor (EA)”. Activation of the TrkA receptor, upon NGF addition, results in the kinase domain being phosphorylated, resulting in subsequent recruitment of Shc1-EA protein. That recruitment results in an active B-galactosidase enzyme that is detected by addition of a chemiluminescent substrate. The human p75^NTR protein was also expressed as a co-receptor for NGF.
All reagents were purchased from DiscoverX, except for the receptor agonists (NGF, BDNF, NT3) which were purchased from Peprotech. Cells were expanded and frozen into cryovials, and stored in the vapor phase of liquid nitrogen, and thawed immediately before use. Thawed cells were added to a 384-well plate at 7500 cells/well, and allowed to incubate overnight. Compound at various concentrations was added the following morning and allowed to incubate on cells for 1 h. Then, NGF was added at a concentration sufficient to elicit ˜80% of a maximal response and allowed to incubate for 3 h at ambient temperature. DiscoverX PathHunter detection reagent was then added and the plate was further incubated for 1 h in the dark. The plate was then read via luminescence on the Perkin Elmer Envision.

human TrkA receptor, sequence (P04629 33-796): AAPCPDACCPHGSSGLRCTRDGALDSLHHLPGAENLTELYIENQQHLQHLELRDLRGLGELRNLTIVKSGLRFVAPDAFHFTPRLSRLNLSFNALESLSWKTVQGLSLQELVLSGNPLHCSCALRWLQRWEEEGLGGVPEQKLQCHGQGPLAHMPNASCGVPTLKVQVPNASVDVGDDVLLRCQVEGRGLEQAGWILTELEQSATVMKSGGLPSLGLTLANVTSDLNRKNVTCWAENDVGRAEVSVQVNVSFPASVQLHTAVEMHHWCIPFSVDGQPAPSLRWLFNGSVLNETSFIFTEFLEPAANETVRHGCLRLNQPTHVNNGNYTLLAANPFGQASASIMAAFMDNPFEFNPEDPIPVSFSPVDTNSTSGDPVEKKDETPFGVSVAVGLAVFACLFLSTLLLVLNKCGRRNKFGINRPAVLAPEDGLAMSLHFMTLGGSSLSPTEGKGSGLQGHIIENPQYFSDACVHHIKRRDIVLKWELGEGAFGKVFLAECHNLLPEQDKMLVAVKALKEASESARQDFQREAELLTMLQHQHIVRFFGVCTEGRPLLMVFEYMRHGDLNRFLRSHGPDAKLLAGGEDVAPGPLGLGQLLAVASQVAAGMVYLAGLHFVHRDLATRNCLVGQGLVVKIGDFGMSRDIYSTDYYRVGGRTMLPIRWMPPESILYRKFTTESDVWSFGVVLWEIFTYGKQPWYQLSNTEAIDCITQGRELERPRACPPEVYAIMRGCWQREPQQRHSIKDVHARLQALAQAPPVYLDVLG

Cc1nc(-c2ccccc2)c(NC(=O)c2ccc(C(F)(F)F)c(-c3ccn(C)n3)c2)n1C [Compound 14, N-(1,2-dimethyl-4-phenyl-1H-imidazol-5-yl)-3-(1-methyl-1H-pyrazol-3-yl)-4-(trifluoromethyl)benzamide]
IC50: 20 nM

CNC(=O)Cc1cc(NC(=O)c2cc(-c3ccn(C)n3)c(C(F)(F)F)cc2F)n(-c2ccc(F)cc2)n1 [Compound 114, 2-fluoro-N-(1-(4-fluorophenyl)-3-(2-(methylamino)-2-oxoethyl)-1H-pyrazol-5-yl)-5-(1-methyl-1H-pyrazol-3-yl)-4-(trifluoromethyl)benzamide]
IC50: 2.4 nM

Cn1ccc(-c2cc(C(=O)Nc3cn(CCO)nc3-c3ccccc3)c(F)cc2C(F)(F)F)n1 [Compound 109, 2-fluoro-N-(1-(2-hydroxyethyl)-3-phenyl-1H-pyrazol-4-yl)-5-(1-methyl-1H-pyrazol-3-yl)-4-(trifluoromethyl)benzamide]
IC50: 16 nM

Cn1ccc(-c2cc(C(=O)Nc3cc(Cc4nnnn4C)nn3-c3ccccc3)c(Cl)cc2C(F)(F)F)n1 [Compound 80, 2-chloro-5-(1-methyl-1H-pyrazol-3-yl)-N-(3-((1-methyl-1H-tetrazol-5-yl)methyl)-1-phenyl-1H-pyrazol-5-yl)-4-(trifluoromethyl)benzamide]
IC50: 0.78 nM

NC(=O)c1ccc(-c2cc(NC(=O)c3cc(-c4ncccn4)c(C(F)(F)F)cc3F)n(-c3ccc(F)cc3)n2)cc1 [Compound 81, N-[3-(4-carbamoylphenyl)-1-(4-fluorophenyl)-1H-pyrazol-5-yl]-2-fluoro-5-pyrimidin-2-yl-4-(trifluoromethyl)benzamide]
IC50: 0.76 nM

CC(O)c1cc(NC(=O)c2cc(-c3ncccn3)c(C(F)(F)F)cc2F)n(-c2ccc(F)cc2)n1 (single isomer, unassigned) [Compound 99, (S or R)-2-fluoro-N-(1-(4-fluorophenyl)-3-(1-hydroxyethyl)-1H-pyrazol-5-yl)-5-(pyrimidin-2-yl)-4-(trifluoromethyl)benzamide]
IC50: 16 nM

Cc1cccnc1-c1cc(C(=O)Nc2cc(-c3ccncc3)nn2-c2ccc(F)cc2)ccc1C(F)(F)F [Compound 31, N-[1-(4-fluorophenyl)-3-pyridin-4-yl-1H-pyrazol-5-yl]-3-(3-methylpyridin-2-yl)-4-(trifluoromethyl)benzamide]
IC50: 860 nM

Cn1ccc(-c2cc(C(=O)Nc3cn[nH]c3-c3ccccc3)ccc2C(F)(F)F)n1 [Compound 18, 3-(1-methyl-1H-pyrazol-3-yl)-N-(5-phenyl-1H-pyrazol-4-yl)-4-(trifluoromethyl)benzamide]
IC50: 18 nM

O=C(Nc1cc(-c2ccc(=O)[nH]n2)nn1-c1ccccc1)c1ccc(C(F)(F)F)cc1Cl [Compound 10, 2-chloro-N-[3-(6-oxo-1,6-dihydropyridazin-3-yl)-1-phenyl-1H-pyrazol-5-yl]-4-(trifluoromethyl)benzamide]
IC50: 290 nM

Cc1cc(NC(=O)c2ccc(OC(F)(F)F)c(-c3ccn(C)n3)c2)n(-c2ccc(F)cc2)n1 [Compound 73, N-[1-(4-fluorophenyl)-3-methyl-1H-pyrazol-5-yl]-3-(1-methyl-1H-pyrazol-3-yl)-4-(trifluoromethoxy)benzamide]
IC50: 57 nM

Cc1csc(-c2cc(C(=O)Nc3cc(-c4cnn(C)c4)nn3-c3cc(C)[nH]n3)ccc2C(F)(F)F)n1 [Compound 5, N-(1″,5-dimethyl-1H,1″H-3,1′:3′,4″-terpyrazol-5′-yl)-3-(4-methyl-1,3-thiazol-2-yl)-4-(trifluoromethyl)benzamide]
IC50: 0.85 nM

O=C(Nc1cc(-c2ccncc2)nn1-c1ccc(F)cc1)c1ccc(C(F)(F)F)c(-c2cccnc2)c1 [Compound 35, N-[1-(4-fluorophenyl)-3-pyridin-4-yl-1H-pyrazol-5-yl]-3-pyridin-3-yl-4-(trifluoromethyl)benzamide]
IC50: 1700 nM

Cn1ccc(-c2cc(C(=O)Nc3cc(Cc4nnnn4C)nn3-c3ccccc3)c(Cl)cc2C(F)(F)F)n1 [Compound 59, 2-chloro-5-(1-methyl-1H-pyrazol-3-yl)-N-{3-[(1-methyl-1H-tetrazol-5-yl)methyl]-1-phenyl-1H-pyrazol-5-yl}-4-(trifluoromethyl)benzamide]
IC50: 1.7 nM

O=C(Nc1cc(-c2ccncc2)nn1-c1ccc(F)cc1)c1ccc(Cl)c(-c2cc[nH]n2)c1 [Compound 42, 4-chloro-N-[1-(4-fluorophenyl)-3-pyridin-4-yl-1H-pyrazol-5-yl]-3-(1H-pyrazol-3-yl)benzamide]
IC50: 110 nM

O=C(Nc1cc(CCO)nn1-c1ccc(F)cc1)c1cc(-c2ncccn2)c(C(F)(F)F)cc1F [Compound 93, 2-fluoro-N-(1-(4-fluorophenyl)-3-(2-hydroxyethyl)-1H-pyrazol-5-yl)-5-(pyrimidin-2-yl)-4-(trifluoromethyl)benzamide]
IC50: 12 nM

Cn1ccc(-c2cc(C(=O)Nc3cc(-c4ccncc4)nn3-c3ccc(F)c(F)c3)ccc2C(F)(F)F)n1 [Compound 9, N-[1-(3,4-difluorophenyl)-3-pyridin-4-yl-1H-pyrazol-5-yl]-3-(1-methyl-1H-pyrazol-3-yl)-4-(trifluoromethyl)benzamide]
IC50: 9.7 nM

Cn1ccc(-c2cc(C(=O)Nc3snnc3-c3ccccc3)ccc2C(F)(F)F)n1 [Compound 19, 3-(1-methyl-1H-pyrazol-3-yl)-N-(4-phenyl-1,2,3-thiadiazol-5-yl)-4-(trifluoromethyl)benzamide]
IC50: 2800 nM

Cc1nc(-c2ccccc2)c(NC(=O)c2ccc(C(F)(F)F)cc2F)s1 [Compound 1, 2-fluoro-N-(2-methyl-4-phenyl-1,3-thiazol-5-yl)-4-(trifluoromethyl)benzamide]
IC50: 780 nM
